In PMC12388300, “The Chelating Abilities of Tertiary Amines with N-O-Donors Towards Cu(II) Ions and the Catalytic Properties of the Resulting Complexes” (Molecules, 2025):
Where two headings read alike, the source gives them in different places. Marks after values point to notes of the source that are not given here. Where no end group is shown, it is not given here.

What was measured:
[1] = UV–Vis monitoring of complex stability during H2O2 dismutation; type: physicochemical; conditions: during H2O2 dismutation, BBS 50 mM pH 7.8
Excerpt: The reaction progression was monitored by UV–Vis to gather insights into the stability of the complexes during H2O2 dismutation (Figures S45–S48 in Supplementary Materials). Analyzing the spectra recorded for the systems derived from HL1 and HL5, it is possible to observe changes in the absorption bands. In the case of the mononuclear species containing HL1, the alteration in the absorption band takes place over a comparatively extended period, in agreement with the occurrence of the delay period previously noted. The intensity associated with the π→π * electronic transition progressively diminishes, coinciding with a rise in molecular oxygen generation. Such a trend implies structural reconfiguration within the coordination environment of the complex, which appears necessary to initiate the catalytic event. On the other hand, the characteristic absorption feature vanishes after 4 h as a result of the formation of radical species. The UV–Vis profile of the complex Cu(HL5)(ClO4)2 (Figure S46) undergoes a faster modification.
Figure S46: UV-Vis spectra of Cu(HL5)(ClO4)2 at time 0 (red) and after 7 h (light red). The colours variation represents an increment of 5 min from t=0 to t=15 min, of 15 min from t=15 to t= 45 min and 45 min from t= 45 to t=360 min.
Conditions: [Cu(HL5)(ClO4)2]= 200 uM, [H2O2]=10mM in BBS 50mM pH=7.8. Zoom: temporal trends compared to O2 (red) and Abs (light red) on the maximum absorption at 294 nm.
Figure S47: UV-Vis spectra of Cu2(L1)2(ClO4)2 at time 0 (blue) and after 24 hours (light blue). Every change of colors represents a temporal increase of 90 minutes. Conditions: [Cu2(L1)2(ClO4)2] = 200 µM, [H2O2] = 10 mM in BBS 50 mM, pH = 7.8. Zoom: temporal trends compared to O2 (blue) and Abs (light blue) on the maximum absorption at 288 nm.
Figure S48: UV-Vis spectra of Cu2(L5)2(ClO4)2 at time 0 (dark green) and after 24 hours (light green). Every change of colours represents a temporal increase of 90 minutes. Conditions: [Cu2(L5)2(ClO4)2] = 200 µM, [H2O2] = 10 mM in BBS 50 mM, pH = 7.8. […]

[2] = SOD activity, indirect cytochrome C (CytC) assay, xanthine/xanthine oxidase; type: biochemical; conditions: [CytC] = 10 μM, pH = 7.8
Procedure: To reduce uncertainty about the actual active species involved in the reaction, the catalytic investigations were made with the isolated species. The ability to catalyze superoxide dismutation was assessed using the indirect cytochrome C-based assay originally introduced by McCord and Fridovich. In this kind of test, the presence of a catalyst with SOD activity, acting as a scavenger for O2^•− and generated via a xanthine/xanthine oxidase system, prevents the electron transfer to cytochrome C (Cyt C) to form […].
(§1) Catalytic measurement assays were conducted using a Varian Cary 100 spectrophotometer with a 3 mL quartz cuvette (1 cm path length) for evaluating SOD-like activity. For the assessment of peroxidase-mimicking activity, a Varian Cary 50 instrument and identical cuvettes were utilized. To monitor the CAT-like activity, a 25 mL vial, equipped with a septum for solution injection, was used as a reactor and connected to a pressure transducer.

[3] = Cyclic voltammetry of the Cu(II)/Cu(I) couple; type: physicochemical
Procedure: To assess this behavior, the corresponding redox potentials were measured by cyclic voltammetry (CV), offering key insights into the electron-transfer properties of the complexes. The metal ion redox potential should ideally lie between the potential for oxidation (−0.16 V vs. NHE) (Equation (1)) and reduction (0.89 V vs. NHE) of superoxide radicals (Equation (2)).(1) O2∙−→O2+e^− (2) O2∙−+e^−+H^+→H2O2
The key electrochemical parameters extracted from the cyclic voltammograms are summarized in Table 3, highlighting a similar redox behavior of the complexes with both ligands. However, the nature of the anion appears to influence the properties of the mononuclear species formed in situ, compared with the isolated complexes.
Cyclic voltammetry experiments were carried out using a BAS Cell C3 EC-epsilon potentiostat equipped with a conventional three-electrode system consisting of a glassy carbon working electrode (3 mm diameter, geometric surface 7 mm^2), a platinum wire counter electrode (CE), and a silver/silver chloride reference electrode (Ag/AgCl, 3 M KCl). Voltammograms were recorded in phosphate-buffered saline (PBS; 10 mM, 150 mM NaCl, pH 7.8) containing 0.25 mM of the complex. The measurements were performed within a potential window from −600 mV to +400 mV, employing various scan rates (50 mV/s, 100 mV/s, 200 mV/s, 400 mV/s, and 800 mV/s).

[4] = CAT-like activity: O2 pressure from hydrogen peroxide dismutation; type: biochemical; parameters: Rmax: unit not given here; conditions: [catalyst] = 200 μM, [H2O2] = 20–30 mM in BBS 50 mM, pH = 7.8
Procedure: The studied catalase-like activity of the complexes was evaluated by measuring the pressure resulting from the oxygen produced during the dismutation of the hydrogen peroxide. For this analysis, a borate-based buffer system (BBS 50 mM, pH 7.8) was utilized to avoid the competitive binding of phosphate anions.
as §1, with “transducer. […]” for “transducer.”
To monitor the CAT-like activity, a 25 mL vial was used as a reactor, connected to a pressure transducer and
a septum for the injection.

[5] = cited from earlier work; for IC50: CytC assay, read-out: IC50 (SOD activity)
[6] = Potentiometric titration: protonation constants of the ligands; type: physicochemical; conditions: I = 0.1 M, 25 °C; for logβi, Lx^− + 2H^+ ⇌ [(HLx)H]^+ / logβi, Lx^− + 3H^+ ⇌ [(HLx)H2]^2+ / logβi, Lx^− + 4H^+ ⇌ [(HLx)H3]^3+ / logβi, Lx^− + H^+ ⇌ HLx: overall protonation constant, 5% v/v DMSO/H2O, HCl/KCl; for logKi, Lx^− + H^+ ⇌ HLx: stepwise protonation constant (phenolic group); for logKi, HLx + H^+ ⇌ [(HLx)H]^+ / logKi, [(HLx)H2]^2+ + H^+ ⇌ [(HLx)H3]^3+ / logKi, [(HLx)H]^+ + H^+ ⇌ [(HLx)H2]^2+: stepwise protonation constant
Procedure: Initially, potentiometric measurements were performed to investigate the binding abilities of the ligands in an aqueous environment at different pH levels and to construct the corresponding speciation curves (Figure 1). The analyses were performed in HCl/KCl mixtures, with KCl used to maintain a constant ionic strength of 0.1 mol·dm^−3. The first step of the potentiometric studies was the assessment of the acid-base properties of both ligands. The overall and stepwise protonation constants are collected in Table 1.
(§2) Potentiometric measurements were performed using a Metrohm pH-meter system equipped with a semi-micro combination electrode, at 25 °C. The system was calibrated based on hydrogen ion concentration using HCl. Ligands were prepared in a 5% (v/v) DMSO solution with water containing HCl/KCl with a constant ionic strength of I = 0.1 M to achieve a final concentration of 1 mM and 0.6 mM of HL1 and HL5, respectively. Titrations were conducted by incrementally adding 0.1 M KOH using a microsyringe at 25°C, spanning a pH interval from 2.5 to 11.5, under an argon atmosphere. The stability constants and complex stoichiometries were determined from the titration data using the SUPERQUAD and HYPERQUAD programs.

[7] = Potentiometric titration: stability constants and speciation of in situ-formed Cu(II) complexes; type: physicochemical; conditions: for logβi of [Cu(HLx)H]^3+ / logβi of [Cu(HLx)]^2+ / logβi of [Cu(Lx)(OH)2]^− / logβi of [Cu(Lx)(OH)] / logβi of [Cu(Lx)]^+: overall stability constant, in situ-formed complex, I = 0.1 M, 25 °C; for pH of maximum concentration of [Cu(HLx)H]^3+: speciation curves, ligand/copper(II) 1:1; for pKi of [Cu(Lx)(OH)2]^− / pKi of [Cu(Lx)(OH)] / pKi of [Cu(Lx)]^+ / pKi of [Cu(HLx)]^2+: stepwise stability constant; for pKi of [Cu(HLx)]^2+: [Cu(HLx)H]^3+ ⇄ [Cu(HLx)]^2+ + H^+
Procedure: Based on the potentiometric studies, the overall and stepwise stability constants of formed complexes were obtained and collected in Table 2; the speciation curves of in situ-formed complexes are presented in Figure 2.
as §2

[8] = [Catalyst] = 100 μM, [H2O2] = 30 mM, MOPS buffer (50 mM, pH 7.5); cited from earlier work
[9] = vs NHE, PBS 10 mM, 150 mM NaCl, pH 7.8, 0.25 mM complex

Row | Molecule | IC50 [5] | Log (kcat) [5] | logβi, Lx^− + 2H^+ ⇌ [(HLx)H]^+ [6] | logβi, Lx^− + 3H^+ ⇌ [(HLx)H2]^2+ [6] | logβi, Lx^− + 4H^+ ⇌ [(HLx)H3]^3+ [6] | logβi, Lx^− + H^+ ⇌ HLx [6] | logKi, Lx^− + H^+ ⇌ HLx [6] | logKi, HLx + H^+ ⇌ [(HLx)H]^+ [6] | logKi, [(HLx)H2]^2+ + H^+ ⇌ [(HLx)H3]^3+ [6] | logKi, [(HLx)H]^+ + H^+ ⇌ [(HLx)H2]^2+ [6] | logβi of [Cu(HLx)H]^3+ [7] | logβi of [Cu(HLx)]^2+ [7] | logβi of [Cu(Lx)(OH)2]^− [7] | logβi of [Cu(Lx)(OH)] [7] | logβi of [Cu(Lx)]^+ [7] | pH of maximum concentration of [Cu(HLx)H]^3+ [7] | pKi of [Cu(Lx)(OH)2]^− [7] | pKi of [Cu(Lx)(OH)] [7] | pKi of [Cu(Lx)]^+ [7] | pKi of [Cu(HLx)]^2+ [7] | other results
1 | Oc1ccccc1CN(Cc1ccccn1)Cc1ccccn1.[Cu+2].[O-][Cl+3]([O-])([O-])[O-].[O-][Cl+3]([O-])([O-])[O-] [Cu(HL1)(ClO4)2] |  |  |  |  |  |  |  |  |  |  |  |  |  |  |  |  |  |  |  |  | time after which the characteristic absorption feature vanishes [1]: 4 h; IC50 ([2]; CytC assay, [xanthine] = 40 μM, [xanthine oxidase] = 0.0053 U/mL, phosphate buffer 50 mM): 1410 nM; Log (kcat) ([2]; kcat(O2•−)=kCytC·[CytC]/IC50, kCytC=2.6×10^5 M^−1s^−1): 6.27 ^h; ΔE ([3]; Epc − Epa, PBS pH 7.8): −0.085 V; │ia/ic│ ([3]; peak current ratio, PBS pH 7.8): 0.61; E1/2 ([3]; vs NHE, E1/2=(Epc+Epa)/2, PBS pH 7.8): −0.135 V; Epa [3, 9]: −0.092 V; Epc [3, 9]: −0.177 V; Time (to maximum O2 production) [4]: 950 min; Induction Time ([4]; triplicate, ±10% error): 250 min; O2 generated ([4]; triplicate, ±10% error): 7.6 mmol/L; Rmax ([4]; triplicate, ±10% error): 0.25
2 | O=S(=O)([O-])[O-].[Cu+2] [CuSO4] | 72200 nM | ~6 |  |  |  |  |  |  |  |  |  |  |  |  |  |  |  |  |  |  | 
3 | Oc1ccccc1CN(Cc1ccccn1)Cc1ccccn1 [HL1, N-(2-hydroxylbenzyl)-N,N-bis(2-pyridylmethyl)amine] |  |  | 16.29 ± 0.02 | 21.53 ± 0.02 | 25.24 ± 0.02 | 9.99 ± 0.01 | 9.99 | 6.30 | 3.71 | 5.24 | 22.67 ± 0.06 | 16.84 ± 0.08 | −10.42 ± 0.09 | 0.03 ± 0.09 | 9.73 ± 0.08 | 4.5 | 10.45 | 9.70 | 7.11 | 5.83 | metal ion binding efficiency in the competition diagram ([7]; HL1:Cu(II):HL5 molar ratio 1:1:1, pH 3 to 11): significantly less efficient in metal ion binding
4 | COc1cccc(CN(Cc2ccccn2)Cc2ccccn2)c1O [HL5, 2-{[Bis(pyridin-2-ylmethyl)amino]methyl}-6-methoxyphenol] |  |  | 15.77 ± 0.02 | 20.71 ± 0.02 | 24.43 ± 0.02 | 9.52 ± 0.01 | 9.52 | 6.25 | 3.72 | 4.94 | 23.43 ± 0.08 | 18.04 ± 0.10 | −8.56 ± 0.11 | 1.77 ± 0.11 | 11.51 ± 0.10 | 3.5 | 10.33 | 9.74 | 6.53 | 5.39 | 
5 | O=C([O-])CCN(Cc1ccccn1)Cc1ccccn1.[Cu+2] [[Cu(BPMPA)]^+] | 1040 nM | 7.09 |  |  |  |  |  |  |  |  |  |  |  |  |  |  |  |  |  |  | 
6 | (CATm1)Cu2: di-copper complex of CATm1 = peptide sequence PHYKHRLH (also: di-copper complex) |  |  |  |  |  |  |  |  |  |  |  |  |  |  |  |  |  |  |  |  | O2 generated [8]: 0.3 mmol/L; Rmax [8]: 273 µM/min; Time [8]: 3 min
